# Measured values published in US6982260B1, “Quinazolines and their use for inhibiting cyclin-dependent kinase enzymes” (Warner-Lambert Company, priority 1999, dated 2006).
# Read-outs that look alike come from different tables or passages of the source.
# Legend:
# cdc2/cyclinB = cdc2/cyclinB (Homo sapiens, UniProt P06493); test: cdc2/cyclinB kinase assay (Table 1, CdkB); format: biochemical; details: 32P incorporation into retinoblastoma, 25° C., 15 minutes
# Experimental: (§1) All components except the ATP were added to the wells, and the plate was placed on a plate mixer for 2 minutes. The reaction was begun by addition of [^32P]ATP, and the plate was incubated at 25° C. for 15 minutes. The reaction was terminated by addition of 0.1 mL of 20% TCA. The plate was kept at 4° C. for at least 1 hour to allow the substrate to precipitate. The wells were then washed five times with 0.2 mL of 10% TCA and ^32P incorporation determined with a beta plate counter (Wallac Inc., Gaithersburg, Md.).
# cdk4/D = cdk4/D (Homo sapiens, UniProt P11802); test: Cyclin-Dependent Kinase 4 (cdk4) Assay; format: biochemical
# Chain of cdk4/D (P11802 whole entry, species assumed): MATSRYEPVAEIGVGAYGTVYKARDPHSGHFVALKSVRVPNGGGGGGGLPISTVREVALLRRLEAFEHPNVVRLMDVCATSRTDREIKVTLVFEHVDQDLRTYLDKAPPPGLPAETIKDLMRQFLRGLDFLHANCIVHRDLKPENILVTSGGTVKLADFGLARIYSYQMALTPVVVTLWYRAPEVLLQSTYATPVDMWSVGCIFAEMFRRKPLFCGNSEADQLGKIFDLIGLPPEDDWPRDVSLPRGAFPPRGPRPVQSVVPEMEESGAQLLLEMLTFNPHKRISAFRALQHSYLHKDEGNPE
# Chain of cdk4/D (P24385 whole entry partner, species assumed): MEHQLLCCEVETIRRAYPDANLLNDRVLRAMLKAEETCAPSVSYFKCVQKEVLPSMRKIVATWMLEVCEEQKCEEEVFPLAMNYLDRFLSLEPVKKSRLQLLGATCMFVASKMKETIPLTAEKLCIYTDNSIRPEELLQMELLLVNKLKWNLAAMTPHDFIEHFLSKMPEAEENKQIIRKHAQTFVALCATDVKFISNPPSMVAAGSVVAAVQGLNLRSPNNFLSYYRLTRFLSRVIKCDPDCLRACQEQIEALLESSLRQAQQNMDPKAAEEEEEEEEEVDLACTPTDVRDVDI
# Experimental: As noted above, the compounds of this invention are potent inhibitors of cyclin-dependent kinases, and accordingly, are useful in treating and preventing neurodegenerative disorders, atherosclerosis, and other cell proliferative disorders like cancer. […] A typical assay, for instance, measures inhibitory activity against the cyclin D dependent kinase 4 enzyme (cdk4/D). […] The cdk4 assay was carried out as follows.
# Cyclin-Dependent Kinase 4 (cdk4) Assay
# Enzyme assays for IC50 determinations (Table 1 above) and kinetic evaluation were performed in 96 well filter plates (Millipore MADVN6550). The total volume was 0.1 mL containing a final concentration of 20 mM TRIS (tris[hydroxymethyl]aminomethane), at pH 7.4, 50 mM NaCl, 1 mM dithiothreitol, 10 mM MgCl2, 25 μM ATP containing 0.25 μCi of [^32P]ATP, 20 ng of cdk4, 1 μg of retinoblastoma, and appropriate dilutions of a compound of the present invention. All components except the ATP were added to the wells, and the plate was placed on a plate mixer for 2 minutes. The reaction was started by adding [^32P]ATP and the plate was incubated at 25° C. for 15 minutes. The reaction was terminated by addition of 0.1 mL of 20% trichloroacetic acid (TCA). The plate was kept at 4° C. for at least 1 hour to allow the substrate to precipitate. The wells were then washed five times with 0.2 mL of 10% TCA and ^32P incorporation was determined with a beta plate counter (Wallac Inc., Gaithersburg, Md.).
# cdk2/A = cdk2/A (Homo sapiens, UniProt P24941); test: cdk2/A kinase assay; format: biochemical; details: 32P incorporation into retinoblastoma, 25° C., 15 minutes; read-out: Cdk2A IC50
# Experimental: as §1
# cdk2/cyclinE = cdk2/cyclinE (Homo sapiens, UniProt P24941); test: cdk2/cyclinE kinase assay; format: biochemical; details: 32P incorporation into retinoblastoma, 25° C., 15 minutes; read-out: Cdk2E IC50
# Experimental: as §1
# [1] = 25 μM ATP, retinoblastoma substrate, 25° C., 15 minutes, read-out: Cdk4 IC50
# Chain of cdc2/cyclinB (P06493 whole entry, species assumed): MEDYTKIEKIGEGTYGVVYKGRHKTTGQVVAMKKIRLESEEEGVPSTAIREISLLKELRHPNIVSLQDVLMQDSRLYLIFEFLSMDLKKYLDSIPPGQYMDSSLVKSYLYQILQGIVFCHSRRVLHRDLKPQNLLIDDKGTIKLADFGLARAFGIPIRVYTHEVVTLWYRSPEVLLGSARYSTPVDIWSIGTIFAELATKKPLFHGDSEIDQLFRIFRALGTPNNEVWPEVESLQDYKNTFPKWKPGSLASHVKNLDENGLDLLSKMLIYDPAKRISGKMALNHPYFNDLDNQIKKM
# Chain of cdc2/cyclinB (P14635 whole entry partner, species assumed): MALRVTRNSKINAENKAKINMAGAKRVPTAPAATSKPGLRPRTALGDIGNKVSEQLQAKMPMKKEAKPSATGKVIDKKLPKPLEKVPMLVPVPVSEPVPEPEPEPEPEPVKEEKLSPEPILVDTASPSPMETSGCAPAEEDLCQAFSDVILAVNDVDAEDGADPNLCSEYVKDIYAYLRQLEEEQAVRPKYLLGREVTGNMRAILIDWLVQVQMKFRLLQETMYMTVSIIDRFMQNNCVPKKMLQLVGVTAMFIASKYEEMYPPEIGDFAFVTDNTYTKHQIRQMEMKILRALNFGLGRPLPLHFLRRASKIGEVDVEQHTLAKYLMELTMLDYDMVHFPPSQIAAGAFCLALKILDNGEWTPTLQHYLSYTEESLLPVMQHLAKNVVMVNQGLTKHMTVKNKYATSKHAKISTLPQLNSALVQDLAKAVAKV
IC50 (cdk4/D; [1]) [nM],Molecule,IC50 (cdc2/cyclinB) [nM],IC50 (cdk4/D) [nM],IC50 (cdk2/A) [nM],IC50 (cdk2/cyclinE) [nM],melting point
,"COc1ccc2cnc(Nc3ccc(N4CCNCC4)cc3)nc2c1C(C)C [Example 34, (8-Isopropyl-7-methoxy-quinazolin-2-yl)-(4-piperazin-1-yl-phenyl)-amine]",506,16,185,1200,
85,"COc1ccc2cnc(Nc3ccc(N4CCCCC4)c(F)c3)nc2c1C1CCCC1 [Example 49, (8-Cyclopentyl-7-methoxy-quinazolin-2-yl)-(3-Fluoro-4-piperidin-1-yl-phenyl)-amine]",> 5000,,,8000,200 to 201 °C
,"COc1ccc2cnc(Nc3ccc(N4CCOCC4)c(F)c3)nc2c1C(C)C [Example 38, (3-Fluoro-4-morpholin-4-yl-phenyl)-(8-isopropyl-7-methoxy-quinazolin-2-yl)-amine]",1230,,451,2750,202 to 203 °C
,"COc1ccc2cnc(Nc3ccc(N4CCN(C(=O)CN)CC4)cc3)nc2c1C(C)C [Example 35, 2-Amino-1-{4-[4-(8-Isopropyl-7-methoxy-quinazolin-2-ylamino)-phenyl]-piperazin-1-yl}-ethanone]",800,10,191,1100,183 to 185 °C
,"COc1ccc2cnc(Nc3ccccc3)nc2c1C1CCCC1 [Example 17, (8-Cyclopentyl-7-methoxy-quinazolin-2-yl)-phenyl-amine]",,,,,187 to 188 °C
,"COc1ccc2cnc(Nc3ccc(N4CCNCC4)c(F)c3)nc2c1C1CCCC1 [Example 50, (8-Cyclopentyl-7-methoxy-quinazolin-2-yl)-(3-fluoro-4-piperazin-1-yl-phenyl)-amine]",214,4,62,300,228 to 229 °C
2400,"COc1ccc2cnc(Nc3ccc(F)c(C)c3)nc2c1C1CCCC1 [Example 48, (8-Cyclopentyl-7-methoxy-quinazolin-2-yl)-(4-fluoro-3-methyl-phenyl)-amine]",1170,,574,2200,208 to 209 °C
,"COc1ccc2cnc(Nc3ccc(N4CCOCC4)cc3)nc2c1C1CCCC1 [Example 44, (8-Cyclopentyl-7-methoxy-quinazolin-2-yl)-(4-morpholin-4-yl-phenyl)-amine]",1590,18,383,650,243 to 244 °C
,"COc1ccc2cnc(Nc3ccccc3)nc2c1C(C)C [Example 19, (8-Isopropyl-7-methoxy-quinazolin-2-yl)-phenyl-amine]",1040,125,253,1080,172 to 173 °C
,"COc1ccc2cnc(Nc3ccc(N4CCN(C(=O)C(N)CC(C)C)CC4)cc3)nc2c1C1CCCC1 (centres unmarked) [Example 42, 2-Amino-1-{4-[4-(8-cyclopentyl-7-methoxy-quinazolin-2-ylamino)-phenyl]-piperazin-1-yl}-4-methyl-pentan-1-one]",333,,103,500,130 to 132 °C
,"COc1ccc2cnc(Nc3ccc(N4CCCCC4)cc3)nc2c1C1CCCC1 [Example 23, (8-Cyclopentyl-7-methoxy-quinazolin-2-yl)-(4-piperidin-1-yl-phenyl)-amine]",> 5000,11,384,> 5000,212 to 214 °C
70,"COc1ccc2cnc(Nc3ccc(N4CCOCC4)c(F)c3)nc2c1C1CCCC1 [Example 43, (8-Cyclopentyl-7-methoxy-quinazolin-2-yl)-(3-fluoro-4-morpholin-4-yl-phenyl)-amine]",> 5000,,966,> 5000,252 to 253 °C
,"CC(C)c1c(O)ccc2cnc(Nc3ccccc3)nc12 [Example 29, 8-Isopropyl-2-phenylamino-quinazolin-7-ol]",813,325,250,550,103 to 104 °C
1500,"COc1ccc2cnc(Nc3ccc(F)c(C)c3)nc2c1C(C)C [Example 46, (4-Fluoro-3-methyl-phenyl)-(8-isopropyl-7-methoxy-quinazolin-2-yl)-amine]",1200,,246,1200,169 to 171 °C
,"COc1ccc2cnc(Nc3ccc(N4CCC(N)C4)cc3)nc2c1C(C)C (centres unmarked) [Example 37, [4-(3-Amino-pyrrolidin-1-yl)-phenyl]-(8-isopropyl-7-methoxy-quinazolin-2-yl)-amine]",1300,11,296,2550,
275,"COc1ccc2cnc(Nc3ccc(N4CCC(NC(=O)OC(C)(C)C)C4)cc3)nc2c1C1CCCC1 (centres unmarked) [Example 45, {1-[4-(8-Cyclopentyl-7-methoxy-quinazolin-2-ylamino)-phenyl]-pyrrolidin-3-yl}-carbamic Acid Tert-butyl Ester]",> 1700,,2390,6900,157 °C (dec.)
,"COc1ccc2cnc(Nc3ccc(N4CCCC4)cc3)nc2c1C(C)C [Example 22, (8-Isopropyl-7-methoxy-quinazolin-2-yl)-(4-pyrrolidin-1-yl-phenyl)-amine]",> 5000,560,1600,> 5000,188 to 190 °C
,"COc1ccc2cnc(Nc3ccc(N4CCCCC4)cc3)nc2c1C(C)C [Example 21, (8-Isopropyl-7-methoxy-quinazolin-2-yl)-(4-piperidin-1-yl-phenyl)-amine]",> 5000,52,410,3100,166 to 167 °C
,"COc1ccc2cnc(Nc3ccc(N4CCOCC4)cc3)nc2c1C(C)C [Example 39, (8-Isopropyl-7-methoxy-quinazolin-2-yl)-(4-morpholin-4-yl-phenyl)-amine]",1970,52,665,4400,
51,"COc1ccc2cnc(Nc3ccc(N4CCN(C(=O)OC(C)(C)C)CC4)cc3)nc2c1C1CCCC1 [Example 26, 4-[4-(8-Cyclopentyl-7-methoxy-quinazolin-2-ylamino)-phenyl]-piperazine-1-carboxylic Acid Tert-butyl Ester]",4200,,646,,183 to 184 °C
,"COc1ccc2cnc(Nc3ccc(N4CCCC4)cc3)nc2c1C1CCCC1 [Example 24, (8-Cyclopentyl-7-methoxy-quinazolin-2-yl)-(4-pyrrolidin-1-yl-phenyl)-amine]",> 5000,1750,,,240 to 242 °C
,"COc1ccc2cnc(Nc3ccc(N4CCN(C(C)=O)CC4)cc3)nc2c1C1CCCC1 [Example 20, 1-{4-[4-(8-Cyclopentyl-7-methoxy-quinazolin-2-ylamino)-phenyl]-piperazin-1-yl}-ethanone]",> 5000,2,50,265,247 to 249 °C
,"COc1ccc2cnc(Nc3ccc(N4CCN(C(C)=O)CC4)cc3)nc2c1C(C)C [Example 33, 1-{4-[4-(8-Isopropyl-7-methoxy-quinazolin-2-ylamino)-phenyl]-piperazin-1-yl}-ethanone]",,25,,900,197 to 198 °C

Molecule,IC50 (cdk4/D; [1]) [nM],IC50 (cdc2/cyclinB) [nM],IC50 (cdk4/D) [nM],IC50 (cdk2/A) [nM],IC50 (cdk2/cyclinE) [nM],melting point
(8-Isopropyl-7-methoxy-quinazolin-2-yl)-(4-piperidin-1-yl-phenyl)-amine [Example 47],75,1070,,264,4100,
"COc1ccc2cnc(Nc3ccc(N4CCNCC4)cc3)nc2c1C1CCCC1 [Example 27, (8-Cyclopentyl-7-methoxy-quinazolin-2-yl)-(4-piperazin-1-yl-phenyl)-amine]",1,132,,28,250,
(8-Isopropyl-7-methoxy-quinazolin-2-yl)-(4′-methoxy-biphenyl-4-yl)-amine [Example 36],225,,,,> 5000,
